# Test system: Mus musculus
# Assay: Topical antiinflammatory activity in mice, expressed as potency was determined
# Format: functional
row,Structure (SMILES),Potency
1,CC(=O)OCC(=O)[C@@]12ON(Cc3ccccc3)C[C@@H]1CC1C3CCC4=CC(=O)C=CC4(C)[C@H]3C(O)CC12C (some centres not stated),69
2,CC(=O)OCC(=O)[C@@]12OC(C)(C)O[C@@H]1CC1C3CCC4=CC(=O)C=CC4(C)[C@H]3C(O)CC12C (some centres not stated),102
3,CC(=O)OCC(=O)[C@@]12N=C(C)O[C@@H]1CC1C3CCC4=CC(=O)C=CC4(C)[C@@]3(F)C(O)CC12C (some centres not stated),104
4,CC(=O)OCC(=O)[C@@]12ON(Cc3ccccc3)C[C@@H]1CC1C3CCC4=CC(=O)C=CC4(C)[C@@]3(F)C(O)CC12C (some centres not stated),62
5,CC(=O)OCC(=O)[C@@]12OC(C)(C)O[C@@H]1CC1C3CCC4=CC(=O)C=CC4(C)[C@@]3(F)C(O)CC12C (some centres not stated),117
6,CC(=O)OCC(=O)[C@@]12ON(C)C[C@@H]1CC1C3CCC4=CC(=O)C=CC4(C)[C@H]3C(O)CC12C (some centres not stated),75
7,CC(=O)OCC(=O)[C@@]12ON(C)C[C@@H]1CC1C3CCC4=CC(=O)C=CC4(C)[C@@]3(F)C(O)CC12C (some centres not stated),156
